Experimental data as given in US6214872A, “Aryloxyarylsulfonylamino hydroxamic acid derivatives” (Pfizer Inc., priority 1999, dated 2001).
Several values for one entry are separate records, joined by “and”; a condition that tells them apart may be missing. Equal values may be shown once.

Key:
[1] = molecular target: T1, Human Collagenase (MMP-1) (Homo sapiens, UniProt P03956); test: Inhibition of Human Collagenase (MMP-1); format: biochemical; details: Table 1; human recombinant collagenase, fluorogenic substrate, room temperature
T1 sequence (P03956 100-469): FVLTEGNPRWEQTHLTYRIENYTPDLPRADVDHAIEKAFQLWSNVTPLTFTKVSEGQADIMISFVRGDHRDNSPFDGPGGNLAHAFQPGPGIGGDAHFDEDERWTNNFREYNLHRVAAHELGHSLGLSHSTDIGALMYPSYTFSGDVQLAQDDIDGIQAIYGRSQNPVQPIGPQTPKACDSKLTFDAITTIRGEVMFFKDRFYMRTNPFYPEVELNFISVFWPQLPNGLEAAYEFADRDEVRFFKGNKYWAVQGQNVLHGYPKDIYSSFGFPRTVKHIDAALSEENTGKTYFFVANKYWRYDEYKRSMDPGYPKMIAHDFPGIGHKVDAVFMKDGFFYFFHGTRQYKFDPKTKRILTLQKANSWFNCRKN
Protocol: Human recombinant collagenase is activated with trypsin using the following ratio: 10 mg trypsin per 100 mg of collagenase. The trypsin and collagenase are incubated at room temperature for 10 minutes then a five fold excess (50 mg/10 mg trypsin) of soybean trypsin inhibitor is added. 10 mM stock solutions of inhibitors are made up in dimethyl sulfoxide and then diluted using the following Scheme: 10 mM→120 μM→12 μM→1.2 μM→0.12 μM Twenty-five microliters of each concentration is then added in triplicate to appropriate wells of a 96 well microfluor plate. The final concentration of inhibitor will be a 1:4 dilution after addition of enzyme and substrate. Positive controls (enzyme, no inhibitor) are set up in wells D1-D6 and blanks (no enzyme, no inhibitors) are set in wells D7-D12. Collagenase is diluted to 400 ng/ml and […] is then added to appropriate wells of the microfluor plate. Final concentration of collagenase in the assay is 100 ng/ml. Substrate ([…]) is made as a 5 mM stock in dimethyl sulfoxide and then diluted to […] in assay buffer. The assay is initiated by the addition of […] substrate per well of the microfluor plate to give a final concentration of 10 mM. Fluorescence readings (360 nm excitation, 460 nm emission) were taken at time 0 and then at 20 minute intervals. The assay is conducted at room temperature with a typical assay time of 3 hours. Fluorescence vs time is then plotted for both the blank and collagenase containing samples (data from triplicate determinations is averaged). […] The zero time is used as a blank for each compound at each concentration and these values are subtracted from the 120 minute data. Data is plotted as inhibitor concentration vs % control (inhibitor fluorescence divided by fluorescence of collagenase alone×100). IC50 's are determined from the concentration of inhibitor that gives a signal that is 50% of the control. If IC50 's are reported to be <0.03 mM then the inhibitors are assayed at concentrations of 0.3 mM, 0.03 mM, […] and 0.003 mM.

[2] = molecular target: Human recombinant MMP-13 (collagenase 3) (Homo sapiens, UniProt P45452); test: Inhibition of MMP-13; format: biochemical; details: human recombinant MMP-13, fluorogenic substrate
Protocol: Human recombinant MMP-13 is activated with 2 mM APMA (p-aminophenyl mercuric acetate) for 1.5 hours, at 37° C. and is diluted to […] in assay buffer (50 mM Tris, pH 7.5, 200 mM sodium chloride, 5 mM calcium chloride, […], 0.02% brij). Twenty-five microliters of diluted enzyme is added per well of a 96 well microfluor plate. The enzyme is then diluted in a 1:4 ratio in the assay by the addition of inhibitor and substrate to give a final concentration in the assay of […]. 10 mM stock solutions of inhibitors are made up in dimethyl sulfoxide and then diluted in assay buffer as per the inhibitor dilution scheme for inhibition of human collagenase (MMP-1): Twenty-five microliters of each concentration is added in triplicate to the microfluor plate. The final concentrations in the assay are 30 mM, 3 mM, 0.3 mM, and 0.03 mM. Substrate ([…]) is prepared as for inhibition of human collagenase (MMP-1) and […] is added to each well to give a final assay concentration of 10 mM. Fluorescence readings (360 nm excitation; 450 emission) are taken at time 0 and every 5 minutes for 1 hour. Positive controls consist of enzyme and substrate with no inhibitor and blanks consist of substrate only. IC50 's are determined as per inhibition of human collagenase (MMP-1). If IC50 's are reported to be less than […], inhibitors are then assayed at final concentrations of 0.3 mM, 0.03 mM, 0.003 mM and 0.0003 mM.

SMILES	IC50 [1]	IC50 [2]
CCOC(=O)CCN(C1(C(=O)NO)CCCC1)S(=O)(=O)c1ccc(Oc2ccc(F)cc2)cc1 [Example 1, 3-[[4-(4-FLUOROPHENOXY)BENZENESULFONYL]-(1-HYDROXY-CARBAMOYL CYCLOPENTYL)AMINO]-PROPIONIC ACID ETHYL ESTER]	100 nM	0.9 nM
COc1ccc(S(=O)(=O)N(CCC(=O)O)C2(C(=O)NO)CCCC2)cc1 [cyclopentyl, --, hydrogen, methoxy]	800 nM and 700 nM	21 nM and 25 nM
COc1ccc(S(=O)(=O)N(CCC(=O)O)C(C(=O)NO)C2CCCCC2)cc1 (centres unmarked) [cyclohexyl, hydrogen, hydrogen, methoxy]	18 nM and 22 nM	4 nM and 2 nM
COc1ccc(S(=O)(=O)N(CCC(=O)O)C(C)(C)C(=O)NO)cc1 [methyl, methyl, hydrogen, methoxy]	12000 nM	590 nM and 730 nM
